Test results reported in ChEMBL document CHEMBL3407483, “Novel 3-nitrotriazole-based amides and carbinols as bifunctional antichagasic agents” (J Med Chem, 2015).
Activity calls are given as the source filed them. The calls are words filed in the database; no cut-off is given here.

Legend:
Trypanosoma cruzi [1] = assay: Antichagasic activity against trypomastigote stage of Trypanosoma cruzi Brazil infected in Balb/c mouse assessed as reduction of parasite index at 15 mg/kg/day, ip measured after 10 days by luciferase reporter gene assay relative to control; format: functional; parameters: scale not given: the % may be the effect or the level left; conditions: route intraperitoneal
Trypanosoma cruzi [2] = assay: Antichagasic activity against trypomastigote stage of Trypanosoma cruzi Brazil infected in Balb/c mouse assessed as reduction of parasite level at 15 mg/kg/day, ip measured after 5 days by luciferase reporter gene assay; format: functional, organism-based
Mus musculus [3] = assay: Toxicity in Balb/c mouse at 15 mg/kg/day, ip measured after 5 to 10 days; format: organism-based; parameters: route intraperitoneal; conditions: in vivo
[4] = Apparent permeability across apical to basolateral side in human Caco2 cells at 10 uM after 2 hrs by LC/MS/MS analysis; format: ADME, cell-based; conditions: caco-2, 2 h
[5] = Metabolic stability in human microsomes assessed as compound remaining at 1 uM after 60 mins by LC/MS/MS analysis in presence of NADPH; format: ADME, Microsome; conditions: read-out: Stability
[6] = Metabolic stability in mouse microsomes assessed as compound remaining at 1 uM after 60 mins by LC/MS/MS analysis in presence of NADPH; format: ADME, Microsome; conditions: read-out: Stability
[7] = Metabolic stability in human microsomes assessed as compound remaining at 1 uM after 60 mins by LC/MS/MS analysis in absence of NADPH; format: ADME, Microsome; conditions: read-out: Stability
[8] = Metabolic stability in mouse microsomes assessed as compound remaining at 1 uM after 60 mins by LC/MS/MS analysis in absence of NADPH; format: ADME, Microsome; conditions: read-out: Stability
[9] = system: Trypanosoma brucei brucei; assay: Selectivity ratio of IC50 for bloodstream form of Trypanosoma brucei brucei to IC50 for bloodstream form of Trypanosoma brucei brucei overexpressing type-1 nitroreductase; format: functional
[10] = system: Trypanosoma brucei rhodesiense; assay: Antitrypanosomal activity against trypomastigote stage of Trypanosoma brucei rhodesiense STIB 900 assessed as parasite growth inhibition after 72 hrs by Alamar Blue assay; format: functional, organism-based; conditions: STIB 900, 72 h
[11] = Selectivity index, ratio of IC50 for rat L6 cells to IC50 for trypomastigote stage of Trypanosoma brucei rhodesiense STIB 900; format: toxicity, cell-based; conditions: read-out: Ratio IC50
Trypanosoma cruzi [12] = assay: Antitrypanosomal activity against amastigote stage of Trypanosoma cruzi Tulahuen C4 infected in rat L6 cells assessed as parasite growth inhibition after 96 hrs by colorimetric analysis; format: functional, organism-based; conditions: Tulahuen C4, L6, 96 h
[13] = Selectivity index, ratio of IC50 for rat L6 cells to IC50 for amastigote stage of Trypanosoma cruzi Tulahuen C4 infected in rat L6 cells; format: toxicity, cell-based; conditions: read-out: Ratio IC50
L6 = assay: Cytotoxicity against rat L6 cells assessed as growth inhibition after 72 hrs by Alamar Blue assay; format: cell-based; conditions: L6, 72 h
Trypanosoma brucei = assay: Activity of his-tagged recombinant Trypanosoma brucei type-1 nitroreductase assessed as oxidized NADH level per mg of protein after 5 mins by absorption spectrum analysis
Trypanosoma cruzi [14] = assay: Activity of his-tagged recombinant Trypanosoma cruzi type-1 nitroreductase assessed as oxidized NADH level per mg of protein after 5 mins by absorption spectrum analysis
[15] = system: Trypanosoma brucei brucei; assay: Antitrypanosomal activity against bloodstream form of Trypanosoma brucei brucei overexpressing type-1 nitroreductase; format: functional, organism-based
[16] = system: Trypanosoma brucei brucei; assay: Antitrypanosomal activity against bloodstream form of Trypanosoma brucei brucei; format: functional, organism-based
Trypanosoma cruzi [17] = assay: Antichagasic activity against trypomastigote stage of Trypanosoma cruzi Brazil infected in Balb/c mouse assessed as parasite index at 15 mg/kg/day, ip measured after 5 days by luciferase reporter gene assay; format: functional; conditions: route intraperitoneal
[18] = target: Sterol 14-alpha demethylase (Trypanosoma cruzi (strain CL Brener), UniProt Q7Z1V1); assay: Binding affinity to recombinant full-length Trypanosoma cruzi CYP51 by UV-spectrophotometric analysis; conditions: read-out: Kd(app)
Sterol 14-alpha demethylase, sequence (Q7Z1V1 whole entry): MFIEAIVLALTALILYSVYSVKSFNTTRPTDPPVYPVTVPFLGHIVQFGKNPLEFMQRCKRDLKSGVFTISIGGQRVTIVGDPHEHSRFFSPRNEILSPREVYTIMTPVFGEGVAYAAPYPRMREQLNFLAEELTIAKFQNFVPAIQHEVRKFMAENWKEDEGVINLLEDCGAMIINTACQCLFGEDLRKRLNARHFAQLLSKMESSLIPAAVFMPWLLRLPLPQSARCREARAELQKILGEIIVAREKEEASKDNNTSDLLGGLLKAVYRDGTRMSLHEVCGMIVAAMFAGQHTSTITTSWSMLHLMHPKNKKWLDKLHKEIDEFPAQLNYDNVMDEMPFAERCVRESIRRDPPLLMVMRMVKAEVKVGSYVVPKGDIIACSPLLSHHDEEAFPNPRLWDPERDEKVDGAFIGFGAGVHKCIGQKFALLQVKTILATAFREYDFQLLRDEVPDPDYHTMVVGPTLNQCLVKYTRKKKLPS

Trypanosoma cruzi [19] = assay: Potency index, ratio of benznidazole IC50 to compound IC50 for amastigote stage of Trypanosoma cruzi Tulahuen C4 infected in rat L6 cells; format: functional
Trypanosoma cruzi [20] = assay: Antichagasic activity against trypomastigote stage of Trypanosoma cruzi Brazil infected in Balb/c mouse assessed as reduction of parasite index at 13 mg/kg/day, ip measured after 10 days by luciferase reporter gene assay relative to control; format: functional; parameters: scale not given: the % may be the effect or the level left; conditions: route intraperitoneal
Trypanosoma cruzi [21] = assay: Antichagasic activity against trypomastigote stage of Trypanosoma cruzi Brazil infected in Balb/c mouse assessed as reduction of parasite level at 13 mg/kg/day, ip measured after 5 days by luciferase reporter gene assay; format: functional, organism-based
Mus musculus [22] = assay: Toxicity in Balb/c mouse at 13 mg/kg/day, ip measured after 5 to 10 days; format: organism-based; parameters: route intraperitoneal; conditions: in vivo

Row | Compound | IC50 [10] | selectivity ratio [11] | IC50 (Trypanosoma cruzi [12]) | selectivity ratio [13] | IC50 (L6) | further results
1 | N#Cc1ccc(-c2ccc(NC(=O)Cn3cnc([N+](=O)[O-])n3)cc2)cc1 | 0.336 µM | 490 | 0.138 µM | 1190 | 165 µM | Activity (Trypanosoma cruzi [1]): <4%; Activity (Trypanosoma cruzi [2]): Active; Activity (Mus musculus [3]): Non-toxic; Papp [4]: 18.7 ×10⁻⁶ cm/s; remaining at 1 h, 1 µM [5]: 96.8%; remaining at 1 h, 1 µM [6]: 79.4%; remaining at 1 h, 1 µM [7]: 84.8%; remaining at 1 h, 1 µM [8]: 110%; Ratio IC50 [9]: 2; Activity (Trypanosoma brucei): 3170 nmol/min; Activity (Trypanosoma cruzi [14]): 888 nmol/min; IC50 [15]: 0.36 µM; IC50 [16]: 0.84 µM
2 | O=[N+]([O-])c1ncn(CC(O)(Cn2cncn2)c2ccc(F)cc2F)n1 (centres undefined) | 26.6 µM |  | 1.17 µM | 220 | 258 µM | Activity (Trypanosoma cruzi [1]): <4%; Activity (Trypanosoma cruzi [17]): 24.9; Activity (Mus musculus [3]): Non-toxic; Activity (Trypanosoma brucei): 3060 nmol/min; Activity (Trypanosoma cruzi [14]): 1180 nmol/min; Kd [18]: 0.606 µM
3 | Cc1ccc(S(=O)(=O)NC(Cc2ccccc2)Cn2cnc([N+](=O)[O-])n2)cc1 (centres undefined) | 11.6 µM |  | 0.339 µM | 428 | 145 µM | 
4 | O=C(Cn1cnc([N+](=O)[O-])n1)c1ccc(-c2ccccc2)cc1 | 1.75 µM | 125 | 0.188 µM | 1160 | 220 µM | 
5 | O=C(Cn1cnc([N+](=O)[O-])n1)Nc1nnc(-c2ccc(Cl)cc2)s1 | 73.9 µM |  | 16.6 µM | > 16.5 | > 274 µM | 
6 | CC1(c2ccc(-n3ccnc3)cc2)CO1 (centres undefined) | 76.2 µM |  | 188 µM |  | 277 µM | 
7 | CC(O)(Cn1cncn1)c1ccc(-n2ccnc2)cc1 (centres undefined) | 153 µM |  | 157 µM |  | > 372 µM | 
8 | O=[N+]([O-])c1ncn(CC(O)(Cn2cncn2)c2ccc(-c3ccccc3)cc2)n1 (centres undefined) | 2.88 µM | 44 | 0.033 µM | 3810 | 127 µM | Activity (Trypanosoma cruzi [1]): <4%; Activity (Trypanosoma cruzi [17]): 42.04; Activity (Mus musculus [3]): Non-toxic; Papp [4]: 16.5 ×10⁻⁶ cm/s; remaining at 1 h, 1 µM [5]: 90.7%; remaining at 1 h, 1 µM [6]: 77.6%; remaining at 1 h, 1 µM [7]: 106%; remaining at 1 h, 1 µM [8]: 102%; Ratio IC50 (Trypanosoma cruzi [19]): 68; Activity (Trypanosoma brucei): 2680 nmol/min; Activity (Trypanosoma cruzi [14]): 1160 nmol/min; Kd [18]: 0.023 µM
9 | O=C(Cn1cnc([N+](=O)[O-])n1)Nc1nc(-c2ccc(Cl)cc2)cs1 | 4.06 µM | 24 | 0.102 µM | 973 | 98.8 µM | 
10 | CC(O)(Cn1cnc([N+](=O)[O-])n1)c1ccc(-c2ccccc2)cc1 (centres undefined) | 1.09 µM | 78.9 | 0.102 µM | 844 | 86 µM | 
11 | O=C(Cn1cncn1)c1ccc(-c2ccccc2)cc1 | 51.7 µM |  | 22.8 µM | 4.9 | 113 µM | 
12 | O=C(Cn1ccnc1[N+](=O)[O-])NCc1ccccc1 [BENZNIDAZOLE] |  |  |  |  |  | Activity (Trypanosoma cruzi [1]): <4%; Activity (Trypanosoma cruzi [17]): 13.38; Activity (Mus musculus [3]): Non-toxic; Activity (Trypanosoma brucei): 1540 nmol/min; Activity (Trypanosoma cruzi [14]): 680 nmol/min
13 | O=C(Cn1cnc([N+](=O)[O-])n1)c1ccc(F)cc1F | 34.1 µM |  | 1.19 µM | 206 | 246 µM | 
14 | O=C(Cn1cnc([N+](=O)[O-])n1)Nc1ccc(-c2ccc(Cl)cc2)cc1 | 0.901 µM | 140 | 0.045 µM | 2800 | 126 µM | Activity (Trypanosoma cruzi [20]): <4%; Activity (Trypanosoma cruzi [21]): Active; Activity (Mus musculus [22]): Non-toxic; Ratio IC50 (Trypanosoma cruzi [19]): 45
15 | O=C(Cn1ccnc1[N+](=O)[O-])Nc1nc(-c2ccc(F)c(F)c2)cs1 | 10 µM |  | 3.99 µM | 15.6 | 62.1 µM | 
16 | OC(Cn1cncn1)(Cn1cncn1)c1ccc(F)cc1F [FLUCONAZOLE] |  |  | 9.97 µM |  | > 294 µM | 
17 | O=C(Cn1cnc([N+](=O)[O-])n1)Nc1ccc(N2CCCCC2)cc1 | 17 µM |  | 0.554 µM | 186 | 103 µM | 
18 | O=C(Cn1cnc([N+](=O)[O-])n1)Nc1nc(-c2ccc(F)c(F)c2)cs1 | 16.1 µM |  | 0.459 µM | 192 | 88.1 µM | 
19 | CC(O)(Cn1cnc([N+](=O)[O-])n1)c1ccc(-n2ccnc2)cc1 (centres undefined) | 1.84 µM | > 173 | 3.29 µM | > 97 | > 318 µM | Activity (Trypanosoma brucei): 3460 nmol/min; Activity (Trypanosoma cruzi [14]): 1070 nmol/min
20 | Fc1ccc(C2(Cn3cncn3)Cn3ccnc3O2)c(F)c1 (centres undefined) | 221 µM |  | 5.79 µM | > 49.4 | > 286 µM | 
21 | CC(O)(Cn1cncn1)c1ccc(-c2ccccc2)cc1 (centres undefined) | 65.6 µM | 1.74 | 0.706 µM | 162 | 114 µM | 
22 | O=C(Cn1ccnc1[N+](=O)[O-])c1ccc(-c2ccccc2)cc1 | 76.5 µM |  | 14.2 µM |  | 9.7 µM | 
23 | Cc1nc(-c2cccc(NC(=O)Cn3cnc([N+](=O)[O-])n3)c2)cs1 | 7.04 µM | 10 | 0.552 µM | 122 | 67.3 µM | 
